According to patent US7183299B2 (priority 2001, dated 2007):

How the values were obtained:
late blight on tomato = format: in vivo, Plasmopara viticola; settings: tomato (Hofuku), therapeutic effect, sprayed after inoculation, active ingredient 100 ppm, disease severity 7 days after inoculation
[1] = tested on: downy mildew (Plasmopara viticola) on grape; settings: in vivo

| Compound | Control value (%) (late blight on tomato) | Control value (%) [1] [%] |
| --- | --- | --- |
| Cc1nnnn1C(=NOCc1cccc(NC(=O)OC2CCCCC2)n1)c1ccccc1 [(13)-22] | 100 | 100 |
| CCCCOC(=O)Nc1nc(CON=C(c2ccccc2)n2nnnc2C)cs1 [(14)-5] | 80 | 70 |
| Cc1nnnn1C(=NOCc1csc(NC(=O)c2ccccc2)n1)c1ccccc1 [(16)-3] | 80 | 70 |
| CCCC(=O)Nc1cccc(CON=C(c2ccc(Cl)cc2)n2nnnc2C)n1 [(17)-1] | 100 | 100 |
| CCCC(=O)Nc1nc(CON=C(c2ccc(Cl)cc2)n2nnnc2C)cs1 [(18)-1] | 100 | 100 |
| Cc1nnnn1C(=NOCc1cccc(NC(=O)OC(C)(C)C)n1)c1cccc(F)c1 [(19)-1] | 100 | 100 |
| CCCCOC(=O)Nc1cccc(CON=C(c2cccc(F)c2)n2nnnc2C)n1 [(19)-11] | 90 | 80 |
| CCCCOC(=O)Nc1cccc(CON=C(c2ccc(F)cc2)n2nnnc2C)n1 [(19)-12] | 100 | 90 |
| CCCCOC(=O)Nc1cccc(CON=C(c2cccc(Cl)c2)n2nnnc2C)n1 [(19)-13] | 100 | 100 |
| CCCCOC(=O)Nc1cccc(CON=C(c2ccc(Cl)cc2)n2nnnc2C)n1 [(19)-14] | 100 | 80 |
| CCCCOC(=O)Nc1cccc(CON=C(c2ccc(C)cc2)n2nnnc2C)n1 [(19)-16] | 100 | 100 |
| CCCCOC(=O)Nc1cccc(CON=C(c2ccc(OC)cc2)n2nnnc2C)n1 [(19)-23] | 80 | 70 |
| CCCCOC(=O)Nc1cccc(CON=C(c2ccc(C#N)cc2)n2nnnc2C)n1 [(19)-25] | 90 | 90 |
| CCCCCOC(=O)Nc1cccc(CON=C(c2ccc(S(C)(=O)=O)cc2)n2nnnc2C)n1 [(19)-28] | 100 | 100 |
| CCCCOC(=O)Nc1cccc(CON=C(c2ccc([N+](=O)[O-])cc2)n2nnnc2C)n1 [(19)-29] | 100 | 80 |
| CCCCOC(=O)Nc1cccc(CON=C(c2ccc(C(F)(F)F)cc2)n2nnnc2C)n1 [(19)-31] | 100 | 90 |
| CCCCOC(=O)Nc1cccc(CON=C(c2ccccc2)n2nnnc2C)n1 [(19)-33] | 100 | 100 |
| CCCCOC(=O)Nc1cccc(CON=C(c2ccc(CC)cc2)n2nnnc2C)n1 [(19)-34] | 100 | 80 |
| CCCCOC(=O)Nc1cccc(CON=C(c2ccc(C(C)(C)C)cc2)n2nnnc2C)n1 [(19)-35] | 80 | 70 |
| Cc1nnnn1C(=NOCc1csc(NC(=O)OC(C)(C)C)n1)c1cccc(F)c1 [(20)-1] | 80 | 70 |
| (Z)-(1-methyltetrazol-5-yl)phenylmethanoneoxime 0-(2-(n-pentyloxycarbonylamino)thiazol-4-yl)methyloxime [(4)-9] | 100 | 80 |
